Data taken from article PMC9965165, “3D-Printing of Capsule Devices as Compartmentalization Tools for Supported Reagents in the Search of Antiproliferative Isatins” (Pharmaceuticals, 2023).
Read-outs that look alike come from different tables or passages of the source.

Experiments:
HBL-100 cell line = test system: HBL-100 cell line; parameters: method as in doi:10.1002/ajoc.202100684; details: HBL-100 line; cited from earlier work
[1] = test system: cancerous cervical HeLa cells; assay: CCK8 antiproliferation / cytotoxicity assay in HeLa cells; type: cell-based, human; details: for specificity for tumoral cells: HeLa versus 3T3 Balb fibroblasts; for IC50: CCK-8 assay, human cervical cancer HeLa cells
Method: (§1) The cytotoxic activity of these new synthesized isatin derivatives was evaluated by means of the CCK8 antiproliferation assay in vitro in two different cell lines: cancerous cervical HeLa and murine 3T3 Balb fibroblast cells. The latter cell line is typically used to analyze the potential toxicity of (nano)materials thanks to their sensitivity. […] It can be observed that fibroblast cells were more sensitive to the presence of isatin derivatives than the cancerous cells in general HeLa ones, probably related to the enhanced replication rate of the tumoral cells. Analysis of the experimental data shown in Figure 6 allowed the determination of IC50 values (see Table 3 and Table 4). […] [65, 66] Compounds 26 and 33 are, therefore, new promising hits for further development.
(§2) Cervical HeLa cancer cells and 3T3 mouse fibroblasts from Cell Biolabs (San Diego, CA, USA) were grown in standard culture conditions (5% CO2 at 37 °C) in DMEM supplemented with 10% (v/v) FBS, 2 mM L-glutamine, 1% (v/v) penicillin/streptomycin, 1 mM sodium pyruvate, and 0.1 mM MEM nonessential amino acids (NEAA).
(§3) Cytotoxicity of the synthesized isatin-based compounds was tested in vitro by means of the CCK-8 cytotoxicity assay. Cancerous cervical HeLa and 3T3 Balb fibroblasts cells were seeded into 96-well plates (1.0 × 10^4 cells/well) and grown for 24 h at an optical confluence of 80–90% under standard culture conditions in 100 μL growth medium. Bare cells were used as the negative control. After 24 h of incubation at 37 °C, 100 μL of NPs at 2.5 × 10^10 NP/mL in the corresponding cell culture medium were injected into the wells and incubated for 24 h and 48 h. After incubation, the culture medium was discarded, cells were washed with 10 mM PBS (pH 7.4) several times, and fresh culture medium (100 μL) containing 10 μL of CCK-8 reagent added to each well. After 2 h, the absorption at 450 nm of cell samples was measured with an UV-vis microplate absorbance reader (Bio-Rad model 689, USA). Cell viability (SR, survival rate) was calculated as follows: SR=Abssample/Absblank×100 where Abssample is the absorbance at 450 nm for cell samples, and Absblank is the absorbance corresponding to the sample controls without the particles.
(§4) For the determination of the half-maximal inhibitory concentration (IC50), a dose–response curve between the isatin derivatives’ concentrations and percent cell viability was plotted and fitted by means of a nonlinear least-squares fitting method (Microcal Origin 2021) to a four-parameter logistic equation: Y=min+((max−min)/1+10^((logIC50−X)×p)) where the original, %control or %survival data are represented by Y along their minimal (min) and maximal (max) values; the isatin derivative concentration is represented by X; IC50 is the concentration at 50% maximal value; and p is the slope factor.

HeLa cell line = test system: HeLa cell line; parameters: method as in doi:10.1002/ajoc.202100684; details: cited from earlier work
[2] = test system: murine 3T3 Balb fibroblast cells; assay: CCK8 antiproliferation / cytotoxicity assay in 3T3 Balb fibroblasts; type: cell-based; details: CCK-8 assay, murine fibroblast 3T3 Balb cells
Method: as §1, §2, §3, §4

cervical tumors = details: cited from earlier work
[3] = Pt-based chemodrug, first line treatment of primary cervical tumors
[4] = drugs used for recurrent and metastatic cervical cancer

| Compound | melting point [°C] | IC50 ([1]; Homo sapiens, HeLa) [µM] | IC50 ([2]; Mus musculus) [µM] | other results |
| --- | --- | --- | --- | --- |
| CCCCN(C(=O)CCl)C1(C(=O)NC(C)(C)C)C(=O)Nc2ccc(I)cc21 (stereo not drawn) [Compound 12, N-(tert-butyl)-3-(N-butyl-2-chloroacetamido)-5-iodo-2-oxoindoline-3-carboxamide] | 108.5 to 109.7 | 8.3 ± 0.8 | 1.3 ± 0.2 | antiproliferative activity (HBL-100 cell line): potent antiproliferative activity; specificity for tumoral cells [1]: not showing fully specific toxic activity for cancerous cells; antiproliferative activity (HeLa cell line): potent antiproliferative activity |
| CCCCN(C(=O)CCl)C1(C(=O)NC(C)(C)C)C(=O)Nc2ccc([N+](=O)[O-])cc21 (stereo not drawn) [Compound 13, N-(tert-butyl)-3-(N-butyl-2-chloroacetamido)-5-nitro-2-oxoindoline-3-carboxamide] | 179.5 to 179.8 | 26.9 ± 1 | 4.8 ± 0.9 | – |
| CCCCN(C(=O)CCl)C1(C(=O)NC(C)(C)C)C(=O)Nc2c(Cl)cc(Cl)cc21 (stereo not drawn) [Compound 14, N-(tert-butyl)-3-(N-butyl-2-chloroacetamido)-5,7-dichloro-2-oxoindoline-3-carboxamide] | 125 to 126 | 14.1 ± 0.3 | 1.5 ± 0.3 | – |
| CCCCN(C(=O)C(F)(F)F)C1(C(=O)NC2CCCCC2)C(=O)Nc2ccc(Br)cc21 (stereo not drawn) [Compound 15, 5-bromo-3-(N-butyl-2,2,2-trifluoroacetamido)-N-cyclohexyl-2-oxoindoline-3-carboxamide] | 209 to 210 | 47.7 ± 1.2 | 28.3 ± 1.7 | – |
| CCCCN(C(=O)CCl)C1(C(=O)NC(C)(C)C)C(=O)Nc2ccc(Br)cc21 (stereo not drawn) [Compound 16, 5-Bromo-N-(tert-butyl)-3-(N-butyl-2-chloroacetamido)-2-oxoindoline-3-carboxamide] | 180 to 182 | 17.9 ± 1.3 | 1.5 ± 0.8 | – |
| O=C1C(=O)N(Cc2cn(Cc3ccccc3)nn2)c2ccc(I)cc21 [Compound 26] | – | 2.5 ± 0.4 | 21.5 ± 2 | specificity for tumoral cells [1]: high specificity for tumoral cells |
| COC(=O)/C=C/c1ccc2c(c1)C(=O)C(=O)N2Cc1ccccc1 [Compound 31] | – | 6.8 | 3.5 ± 0.8 | IC50 [1]: 8.8 ± 1.1 µM; specificity for tumoral cells [1]: not showing fully specific toxic activity for cancerous cells |
| N.N.O=C([O-])C1(C(=O)[O-])CCC1.[Pt+2] [carboplatin] | – | – | – | IC50 (cervical tumors; [3]): 1000 µM |
| N.N.[Cl][Pt][Cl] [cisplatin] | – | – | – | IC50 (cervical tumors; [3]): 15 µM |
| CC(=O)O[C@H]1C(=O)[C@@]2(C)[C@H]([C@H](OC(=O)c3ccccc3)[C@]3(O)C[C@H](OC(=O)[C@H](O)[C@@H](NC(=O)c4ccccc4)c4ccccc4)C(C)=C1C3(C)C)[C@]1(OC(C)=O)CO[C@@H]1C[C@@H]2O [paclitaxel] | – | – | – | IC50 (cervical tumors; [4]): 21 µM |
| CC[C@@]1(O)C(=O)OCc2c1cc1n(c2=O)Cc2cc3c(CN(C)C)c(O)ccc3nc2-1 [topotecan] | – | – | – | IC50 (cervical tumors; [4]): 26 µM |
| N-(tert-butyl)-3-(N-butyl-2-chloroacetamido)-1-methyl-2-oxoindoline-3-carboxamide [Compound 11] | – | – | – | IC50 [1]: 40.1 ± 1.5 µM; IC50 [2]: 7.3 ± 0.7 µM |

Second part, led by results:

| melting point [°C] | Compound | IC50 ([1]; Homo sapiens, HeLa) [µM] | IC50 ([2]; Mus musculus) [µM] | other results |
| --- | --- | --- | --- | --- |
| 204 to 205 | CCCCN(C(=O)C(F)(F)F)C1(C(=O)NC(C)(C)C)C(=O)Nc2ccc(I)cc21 (stereo not drawn) [Compound 17, N-(tert-butyl)-3-(N-butyl-2,2,2-trifluoroacetamido)-5-iodo-2-oxoindoline-3-carboxamide] | 33 ± 1.4 | 7.2 ± 0.5 | – |
| 218 to 220 | CCCCN(C(=O)C(F)(F)F)C1(C(=O)NC2CCCCC2)C(=O)Nc2ccc(I)cc21 (stereo not drawn) [Compound 18, 3-(N-butyl-2,2,2-trifluoroacetamido)-N-cyclohexyl-5-iodo-2-oxoindoline-3-carboxamide] | 6.8 ± 0.5 | 8.5 ± 0.7 | – |
| 198 to 200 | CCCCN(C(=O)C(F)(F)F)C1(C(=O)NC(C)(C)C)C(=O)Nc2ccc(Br)cc21 (stereo not drawn) [Compound 19, 5-bromo-N-(tert-butyl)-3-(N-butyl-2,2,2-trifluoroacetamido)-2-oxoindoline-3-carboxamide] | 16.8 ± 1.7 | 7.8 ± 0.4 | – |
| 178 to 180 | CCCCN(C(=O)C(F)(F)F)C1(C(=O)NC(C)(C)C)C(=O)Nc2ccc([N+](=O)[O-])cc21 (stereo not drawn) [Compound 20, N-(tert-butyl)-3-(N-butyl-2,2,2-trifluoroacetamido)-5-nitro-2-oxoindoline-3-carboxamide] | 26 ± 1.9 | 25 ± 1.9 | – |
| 200 to 202 | CCCCN(C(=O)C(F)(F)F)C1(C(=O)NC2CCCCC2)C(=O)Nc2ccc([N+](=O)[O-])cc21 (stereo not drawn) [Compound 21, 3-(N-butyl-2,2,2-trifluoroacetamido)-N-cyclohexyl-5-nitro-2-oxoindoline-3-carboxamide] | 12.4 ± 0.7 | 17 ± 0.7 | – |
| 190.2 to 190.4 | CCCCN(C(=O)CCl)C1(C(=O)NC2CCCCC2)C(=O)Nc2ccc(Br)cc21 (stereo not drawn) [Compound 22, 5-bromo-3-(N-butyl-2-chloroacetamido)-N-cyclohexyl-2-oxoindoline-3-carboxamide] | 27 ± 0.8 | 0.12 ± 0.01 | – |
| 175 to 177 | O=C1C(=O)N(Cc2cn(Cc3ccccc3)nn2)c2ccccc21 [Compound 25] | 13.9 ± 4.5 | 100 ± 3.1 | – |
| 158 to 159 | CCOC(=O)Cn1cc(CN2C(=O)C(=O)c3cc(I)ccc32)nn1 [Compound 27] | 66.9 ± 8.9 | 7.3 ± 0.7 | – |
| 131 to 132 | COC(=O)/C=C/c1ccc2c(c1)C(=O)C(=O)N2CCC(=O)OC [Compound 30, methyl (E)-3-(1-(3-methoxy-3-oxopropyl)-2,3-dioxoindolin-5-yl)acrylate] | 9.3 ± 0.8 | 42.1 ± 2.7 | specificity for tumoral cells [1]: not showing fully specific toxic activity for cancerous cells |
| 228 to 230 | COC(=O)/C=C/c1ccc2c(c1)C(=O)C(=O)N2Cc1ccc(I)cc1 [Compound 32, methyl (E)-3-(1-(4-iodobenzyl)-2,3-dioxoindolin-5-yl)acrylate] | 10.8 ± 0.9 | 32.1 ± 3.4 | – |
| 188 to 190 | COC(=O)/C=C/c1ccc(CN2C(=O)C(=O)c3cc(/C=C/C(=O)OC)ccc32)cc1 [Compound 33, methyl (E)-3-(4-((5-((E)-3-methoxy-3-oxoprop-1-en-1-yl)-2,3-dioxoindolin-1-yl)methyl)phenyl)acrylate] | 1 ± 0.05 | 12.6 ± 0.9 | specificity for tumoral cells [1]: high specificity for tumoral cells |
